How the values were obtained:
Type in all cases: functional
[1] = system: Talaromyces funiculosus; assay: Fungicidal activity against Penicillium funiculosum ATCC 36839 by microdilution method
[2] = system: Aspergillus niger; assay: Fungicidal activity against Aspergillus niger by microdilution method
[3] = system: Penicillium ochrochloron; assay: Fungicidal activity against Penicillium ochrochloron ATCC 9112 by microdilution method
[4] = system: Trichoderma viride; assay: Fungicidal activity against Trichoderma viride IAM 5061 by microdilution method
[5] = system: Penicillium cyclopium; assay: Fungicidal activity against Penicillium verrucosum var. cyclopium food isolate by microdilution method
[6] = system: Aspergillus versicolor; assay: Fungicidal activity against Aspergillus versicolor ATCC 11730 by microdilution method
[7] = system: Aspergillus fumigatus; assay: Fungicidal activity against Aspergillus fumigatus ATCC 1022 by microdilution method
[8] = system: Aspergillus ochraceus; assay: Fungicidal activity against Aspergillus ochraceus by microdilution method

| SMILES | MFC [1] | MFC [2] | MFC [3] | MFC [4] | MFC [5] | MFC [6] | MFC [7] | MFC [8] |
| --- | --- | --- | --- | --- | --- | --- | --- | --- |
| CC(=O)c1c(O)c(C)c(O)c2c1OC1=CC(=O)/C(=C(/C)NCC(=O)Nc3nccs3)C(=O)[C@@]12C | 3.72 ×10⁻² mmol/ml | 1.86 ×10⁻² mmol/ml | 3.72 ×10⁻² mmol/ml | 3.72 ×10⁻² mmol/ml | 3.72 ×10⁻² mmol/ml | 3.72 ×10⁻² mmol/ml | 3.72 ×10⁻² mmol/ml | 1.86 ×10⁻² mmol/ml |
| CC(=O)NCCN/C(C)=C1\C(=O)C=C2Oc3c(C(C)=O)c(O)c(C)c(O)c3[C@@]2(C)C1=O | 7.53 ×10⁻² mmol/ml | 15.05 ×10⁻² mmol/ml | 7.53 ×10⁻² mmol/ml | 15.05 ×10⁻² mmol/ml | 15.05 ×10⁻² mmol/ml | 7.53 ×10⁻² mmol/ml | 7.53 ×10⁻² mmol/ml | 15.05 ×10⁻² mmol/ml |
| CC(=O)c1c(O)c(C)c(O)c2c1OC1=CC(=O)/C(=C(/C)NCCc3nc(C)no3)C(=O)[C@@]12C | 3.73 ×10⁻² mmol/ml | 3.73 ×10⁻² mmol/ml | 3.73 ×10⁻² mmol/ml | 1.87 ×10⁻² mmol/ml | 3.73 ×10⁻² mmol/ml | 3.73 ×10⁻² mmol/ml | 3.73 ×10⁻² mmol/ml | 1.87 ×10⁻² mmol/ml |
| CC(=O)N1CCN(c2ccc(OCC3COC(Cn4ccnc4)(c4ccc(Cl)cc4Cl)O3)cc2)CC1 (stereo not given) [KETOCONAZOLE] | 95 ×10⁻² mmol/ml | 95 ×10⁻² mmol/ml | 380 ×10⁻² mmol/ml | 570 ×10⁻² mmol/ml | 94 ×10⁻² mmol/ml | 380 ×10⁻² mmol/ml | 95 ×10⁻² mmol/ml | 95 ×10⁻² mmol/ml |
| c1ccc(-c2ccc(C(c3ccccc3)n3ccnc3)cc2)cc1 (stereo not given) [BIFONAZOLE] | 80 ×10⁻² mmol/ml | 64 ×10⁻² mmol/ml | 64 ×10⁻² mmol/ml | 80 ×10⁻² mmol/ml | 48 ×10⁻² mmol/ml | 64 ×10⁻² mmol/ml | 64 ×10⁻² mmol/ml | 80 ×10⁻² mmol/ml |
| CC(=O)c1c(O)c(C)c(O)c2c1OC1=CC(=O)/C(=C(/C)NCCc3nnc(-c4ccccc4O)o3)C(=O)[C@@]12C | 3.01 ×10⁻² mmol/ml | 6.02 ×10⁻² mmol/ml | 3.01 ×10⁻² mmol/ml | 1.51 ×10⁻² mmol/ml | 3.01 ×10⁻² mmol/ml | 3.01 ×10⁻² mmol/ml | 3.01 ×10⁻² mmol/ml | 1.51 ×10⁻² mmol/ml |
| COCCc1noc(CCN/C(C)=C2\C(=O)C=C3Oc4c(C(C)=O)c(O)c(C)c(O)c4[C@@]3(C)C2=O)n1 | 4.02 ×10⁻² mmol/ml | 4.02 ×10⁻² mmol/ml | 4.02 ×10⁻² mmol/ml | 2.01 ×10⁻² mmol/ml | 4.02 ×10⁻² mmol/ml | 4.02 ×10⁻² mmol/ml | 4.02 ×10⁻² mmol/ml | 2.01 ×10⁻² mmol/ml |
| CC(=O)c1c(O)c(C)c(O)c2c1OC1=CC(=O)/C(=C(/C)NCCS(N)(=O)=O)C(=O)[C@@]12C | 7.1 ×10⁻² mmol/ml | 7.1 ×10⁻² mmol/ml | 7.1 ×10⁻² mmol/ml | 3.55 ×10⁻² mmol/ml | 7.1 ×10⁻² mmol/ml | 7.1 ×10⁻² mmol/ml | 7.1 ×10⁻² mmol/ml | 3.55 ×10⁻² mmol/ml |
| CC(=O)c1c(O)c(C)c(O)c2c1OC1=CC(=O)/C(=C(/C)NCCn3c(=O)c(O)nc4ccccc43)C(=O)[C@@]12C | 3.64 ×10⁻² mmol/ml | 3.64 ×10⁻² mmol/ml | 3.64 ×10⁻² mmol/ml | 1.82 ×10⁻² mmol/ml | 7.28 ×10⁻² mmol/ml | 3.64 ×10⁻² mmol/ml | 3.64 ×10⁻² mmol/ml | 1.82 ×10⁻² mmol/ml |
| CC(=O)c1c(O)c(C)c(O)c2c1OC1=CC(=O)/C(=C(/C)NCC(=O)NC(CO)C(=O)O)C(=O)[C@@]12C (stereo not given in full) | 3.69 ×10⁻² mmol/ml | 3.69 ×10⁻² mmol/ml | 3.69 ×10⁻² mmol/ml | 1.84 ×10⁻² mmol/ml | 3.69 ×10⁻² mmol/ml | 3.69 ×10⁻² mmol/ml | 3.69 ×10⁻² mmol/ml | 3.69 ×10⁻² mmol/ml |
| CC(=O)c1c(O)c(C)c(O)c2c1OC1=CC(=O)/C(=C(/C)NCc3noc(C4CCC(=O)N4)n3)C(=O)[C@@]12C (stereo not given in full) | 1.77 ×10⁻² mmol/ml | 3.54 ×10⁻² mmol/ml | 1.77 ×10⁻² mmol/ml | 1.77 ×10⁻² mmol/ml | 3.54 ×10⁻² mmol/ml | 3.54 ×10⁻² mmol/ml | 3.54 ×10⁻² mmol/ml | 3.54 ×10⁻² mmol/ml |
| CC(=O)c1c(O)c(C)c(O)c2c1OC1=CC(=O)/C(=C(/C)NCc3nc(N)n[nH]3)C(=O)[C@@]12C | 4.41 ×10⁻² mmol/ml | 4.41 ×10⁻² mmol/ml | 4.41 ×10⁻² mmol/ml | 8.82 ×10⁻² mmol/ml | 8.82 ×10⁻² mmol/ml | 4.41 ×10⁻² mmol/ml | 4.41 ×10⁻² mmol/ml | 8.82 ×10⁻² mmol/ml |
| CC(=O)C1=C(O)C=C2Oc3c(C(C)=O)c(O)c(C)c(O)c3C2(C)C1=O (stereo not given) | 8.8 ×10⁻² mmol/ml | 8.8 ×10⁻² mmol/ml | 8.8 ×10⁻² mmol/ml | 4.4 ×10⁻² mmol/ml | 8.8 ×10⁻² mmol/ml | 8.8 ×10⁻² mmol/ml | 69.8 ×10⁻² mmol/ml | 4.4 ×10⁻² mmol/ml |
| COc1ccc2nc(NC(=O)CN/C(C)=C3\C(=O)C=C4Oc5c(C(C)=O)c(O)c(C)c(O)c5[C@@]4(C)C3=O)sc2c1 | 14.95 ×10⁻² mmol/ml | 14.95 ×10⁻² mmol/ml | 14.95 ×10⁻² mmol/ml | 1.77 ×10⁻² mmol/ml | 14.95 ×10⁻² mmol/ml | 7.1 ×10⁻² mmol/ml | 14.95 ×10⁻² mmol/ml | 14.95 ×10⁻² mmol/ml |
| CC(=O)c1c(O)c(C)c(O)c2c1OC1=CC(=O)/C(=C(/C)NCCc3ccc(O)c(O)c3)C(=O)[C@@]12C | 4.17 ×10⁻² mmol/ml | 8.34 ×10⁻² mmol/ml | 4.17 ×10⁻² mmol/ml | 2.09 ×10⁻² mmol/ml | 4.17 ×10⁻² mmol/ml | 4.17 ×10⁻² mmol/ml | 4.17 ×10⁻² mmol/ml | 2.09 ×10⁻² mmol/ml |
